# Source: PubChem BioAssay (NCI)
#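 Following 48 hours of exposure in 96-well plates, responses at five concentrations were used to interpolate endpoints linearly. GI50 marks 50% less growth. The concentration for full growth arrest is given as TGI.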
# What was measured:
# Test in all cases: growth of human tumour cells (NCI), 48 h
# HCT-15 colon = system: HCT-15 colon
# OVCAR-3 ovarian = system: OVCAR-3 ovarian
# A498 renal = system: A498 renal
# RPMI-8226 leukemia = system: RPMI-8226 leukemia
# SF-539 CNS = system: SF-539 CNS
# UO-31 renal = system: UO-31 renal
# SK-MEL-5 melanoma = system: SK-MEL-5 melanoma
# U251 CNS = system: U251 CNS
# 786-0 renal = system: 786-0 renal
# IGROV1 ovarian = system: IGROV1 ovarian
# HCC-2998 colon = system: HCC-2998 colon
# COLO 205 colon = system: COLO 205 colon
# SK-MEL-28 melanoma = system: SK-MEL-28 melanoma
# SW-620 colon = system: SW-620 colon
# SN12C renal = system: SN12C renal
# SNB-19 CNS = system: SNB-19 CNS
# NCI-H460 lung = system: NCI-H460 lung
# UACC-257 melanoma = system: UACC-257 melanoma
# HOP-62 NSCLC = system: HOP-62 NSCLC
# LOX IMVI melanoma = system: LOX IMVI melanoma
# K-562 leukemia = system: K-562 leukemia
# SF-268 CNS = system: SF-268 CNS
# CAKI-1 renal = system: CAKI-1 renal
# MOLT-4 leukemia = system: MOLT-4 leukemia
# KM12 colon = system: KM12 colon
# OVCAR-8 ovarian = system: OVCAR-8 ovarian
# OVCAR-5 ovarian = system: OVCAR-5 ovarian
# SK-OV-3 ovarian = system: SK-OV-3 ovarian
# OVCAR-4 ovarian = system: OVCAR-4 ovarian
# SNB-75 CNS = system: SNB-75 CNS
# MCF7 breast = system: MCF7 breast
# MDA-MB-231 breast = system: MDA-MB-231 breast
# HS 578T breast = system: HS 578T breast
# UACC-62 melanoma = system: UACC-62 melanoma
# TK-10 renal = system: TK-10 renal
# M14 melanoma = system: M14 melanoma
# PC-3 prostate = system: PC-3 prostate
# SR leukemia = system: SR leukemia
# CCRF-CEM leukemia = system: CCRF-CEM leukemia
# SF-295 CNS = system: SF-295 CNS
# HL-60(TB) leukemia = system: HL-60(TB) leukemia
# EKVX NSCLC = system: EKVX NSCLC
# MDA-MB-435 = system: MDA-MB-435
# SK-MEL-2 melanoma = system: SK-MEL-2 melanoma
# DU-145 prostate = system: DU-145 prostate
# NCI-H522 lung = system: NCI-H522 lung
# ACHN renal = system: ACHN renal
# NCI-H226 lung = system: NCI-H226 lung
# HOP-92 NSCLC = system: HOP-92 NSCLC
# MALME-3M melanoma = system: MALME-3M melanoma
# NCI/ADR-RES ovarian = system: NCI/ADR-RES ovarian
# A549 NSCLC = system: A549 NSCLC
# T-47D breast = system: T-47D breast
# RXF 393 renal = system: RXF 393 renal
# HT29 colon = system: HT29 colon
# BT-549 breast = system: BT-549 breast
# HCT-116 colon = system: HCT-116 colon
structure (smiles),measurement,setting,value
Cc1cc2c(-c3ccc(NC(=O)[C@H](N)CC(C)(C)C)cc3C)ccnc2[nH]1,GI50,HCT-15 colon,4.52 µM
same,TGI,HCT-15 colon,21.8 µM
same,GI50,OVCAR-3 ovarian,11.6 µM
same,TGI,OVCAR-3 ovarian,24.8 µM
same,GI50,A498 renal,2.2 µM
same,TGI,A498 renal,12.8 µM
same,GI50,RPMI-8226 leukemia,2.77 µM
same,TGI,RPMI-8226 leukemia,7.82 µM
same,GI50,SF-539 CNS,7.97 µM
same,TGI,SF-539 CNS,21 µM
same,GI50,UO-31 renal,4.62 µM
same,TGI,UO-31 renal,18.1 µM
same,GI50,SK-MEL-5 melanoma,2.46 µM
same,TGI,SK-MEL-5 melanoma,6.53 µM
same,GI50,U251 CNS,5.99 µM
same,TGI,U251 CNS,19.5 µM
same,GI50,786-0 renal,1.81 µM
same,TGI,786-0 renal,3.4 µM
same,GI50,IGROV1 ovarian,12.2 µM
same,TGI,IGROV1 ovarian,26.1 µM
same,GI50,HCC-2998 colon,5.81 µM
same,TGI,HCC-2998 colon,20.9 µM
same,GI50,COLO 205 colon,1.82 µM
same,TGI,COLO 205 colon,3.54 µM
same,GI50,SK-MEL-28 melanoma,8.48 µM
same,TGI,SK-MEL-28 melanoma,20.8 µM
same,GI50,SW-620 colon,5.63 µM
same,TGI,SW-620 colon,19.7 µM
same,GI50,SN12C renal,11.1 µM
same,TGI,SN12C renal,23.6 µM
same,GI50,SNB-19 CNS,11.3 µM
same,TGI,SNB-19 CNS,23.5 µM
same,GI50,NCI-H460 lung,5.7 µM
same,TGI,NCI-H460 lung,19 µM
same,GI50,UACC-257 melanoma,10.5 µM
same,TGI,UACC-257 melanoma,23 µM
same,GI50,HOP-62 NSCLC,11.4 µM
same,TGI,HOP-62 NSCLC,24.6 µM
same,GI50,LOX IMVI melanoma,5.9 µM
same,TGI,LOX IMVI melanoma,25.9 µM
same,GI50,K-562 leukemia,2.82 µM
same,TGI,K-562 leukemia,41.2 µM
same,GI50,SF-268 CNS,11.1 µM
same,TGI,SF-268 CNS,26.6 µM
same,GI50,CAKI-1 renal,4.5 µM
same,TGI,CAKI-1 renal,16.3 µM
same,GI50,MOLT-4 leukemia,4.69 µM
same,TGI,MOLT-4 leukemia,24 µM
same,GI50,KM12 colon,6.1 µM
same,TGI,KM12 colon,21.2 µM
same,GI50,OVCAR-8 ovarian,13.6 µM
same,TGI,OVCAR-8 ovarian,28 µM
same,GI50,OVCAR-5 ovarian,10.4 µM
same,TGI,OVCAR-5 ovarian,22.3 µM
same,GI50,SK-OV-3 ovarian,12.4 µM
same,TGI,SK-OV-3 ovarian,25.2 µM
same,GI50,OVCAR-4 ovarian,6.95 µM
same,TGI,OVCAR-4 ovarian,20.8 µM
same,GI50,SNB-75 CNS,4.72 µM
same,TGI,SNB-75 CNS,18.1 µM
same,GI50,MCF7 breast,5.54 µM
same,TGI,MCF7 breast,30.5 µM
same,GI50,MDA-MB-231 breast,7.43 µM
same,TGI,MDA-MB-231 breast,20.7 µM
same,GI50,HS 578T breast,1.42 µM
same,TGI,HS 578T breast,12.3 µM
same,GI50,UACC-62 melanoma,8.6 µM
same,TGI,UACC-62 melanoma,21 µM
same,GI50,TK-10 renal,12.6 µM
same,TGI,TK-10 renal,25.3 µM
same,GI50,M14 melanoma,11 µM
same,TGI,M14 melanoma,23.5 µM
same,GI50,PC-3 prostate,7.91 µM
same,TGI,PC-3 prostate,22.1 µM
same,GI50,SR leukemia,2.08 µM
same,TGI,SR leukemia,6.37 µM
same,GI50,CCRF-CEM leukemia,5.41 µM
same,TGI,CCRF-CEM leukemia,28.2 µM
same,GI50,SF-295 CNS,8.33 µM
same,TGI,SF-295 CNS,25.7 µM
same,GI50,HL-60(TB) leukemia,2.89 µM
same,TGI,HL-60(TB) leukemia,14 µM
same,GI50,EKVX NSCLC,11.2 µM
same,TGI,EKVX NSCLC,28.3 µM
same,GI50,MDA-MB-435,7 µM
same,TGI,MDA-MB-435,19.9 µM
same,GI50,SK-MEL-2 melanoma,14 µM
same,TGI,SK-MEL-2 melanoma,27.2 µM
same,GI50,DU-145 prostate,12.4 µM
same,TGI,DU-145 prostate,25.5 µM
same,GI50,NCI-H522 lung,13 µM
same,TGI,NCI-H522 lung,26.3 µM
same,GI50,ACHN renal,10.5 µM
same,TGI,ACHN renal,22.3 µM
same,GI50,NCI-H226 lung,10.7 µM
same,TGI,NCI-H226 lung,27.2 µM
same,GI50,HOP-92 NSCLC,2.67 µM
same,TGI,HOP-92 NSCLC,10.3 µM
same,GI50,MALME-3M melanoma,10.2 µM
same,TGI,MALME-3M melanoma,22.8 µM
same,GI50,NCI/ADR-RES ovarian,13.4 µM
same,TGI,NCI/ADR-RES ovarian,35.8 µM
same,GI50,A549 NSCLC,10.3 µM
same,TGI,A549 NSCLC,26 µM
same,GI50,T-47D breast,6.71 µM
same,TGI,T-47D breast,24.8 µM
same,GI50,RXF 393 renal,3.68 µM
same,TGI,RXF 393 renal,16 µM
same,GI50,HT29 colon,2.72 µM
same,TGI,HT29 colon,8.84 µM
same,GI50,BT-549 breast,6.31 µM
same,TGI,BT-549 breast,19.5 µM
same,GI50,HCT-116 colon,4.85 µM
same,TGI,HCT-116 colon,16.5 µM
